As usually defined, the Ki is a dissociation constant, usually derived from enzyme kinetics or from competition with a known ligand.

The target in assay [1] is T1, MC4 (Homo sapiens, UniProt P32245). Kind of assay: Test 2. Affinity for the MC4-receptors (I125-NDP-αMSH binding). Particulars: I125-NDP-αMSH as ligand; read-out: Affinity for MC-receptors Ki MC4. The method, then: (§1) Test 2. Affinity for the MC3-receptors, the MC4-receptors and the MC5-receptors
(§2) The binding assays were carried out essentially as described by Szardenings et al, J Biol Chem 1997; 272; 27943-27948 and Schiöth et al, FEBS Lett 1997; 410; 223-228 using I125-NDP-αMSH as ligand.

Assay [2] has as its target T2, MC5 (Homo sapiens, UniProt P33032). Kind of assay: Test 2. Affinity for the MC5-receptors (I125-NDP-αMSH binding). As to conditions: I125-NDP-αMSH as ligand; read-out: Affinity for MC-receptors Ki MC5. The method, then:
as §1, §2

Assay [3] addresses T3, MC3 (Homo sapiens, UniProt P41968). Briefly: Test 2. Affinity for the MC3-receptors (I125-NDP-αMSH binding). As to conditions: I125-NDP-αMSH as ligand; read-out: Affinity for MC-receptors Ki MC3. How it is done: as §1, §2
For assay [4], the target named is T1, MC4. Kind of assay: Test 3. cAMP stimulation, MC4. Format: cell-based. Particulars: response relative to α-MSH. How it is done: (§3) The stimulation of cAMP was carried out essentially as described by Schiöth et al, Br J Pharmacol 1998; 124; 75-82, however, the response is given relative to α-MSH.
The target of assay [5] is MC1-receptor (Mus musculus, UniProt Q01727). Kind of assay: Test 1. Affinity for the MC1-receptor (I125-NDP-αMSH binding). Particulars: I125-NDP-αMSH as ligand; read-out: Affinity for MC-receptors Ki MC1. The text has this:
Test 1. Affinity for the MC1-receptor
The binding assay was cared out essentially as described by Lunec et al, Melanoma Res 1992; 2; 5-12 using I^125-NDP-αMSH as ligand.

Assay [6] addresses MC1 (Homo sapiens, UniProt Q01726). Briefly: Test 3. cAMP stimulation, MC1. Format: cell-based. Particulars: response relative to α-MSH. The method, then:
as §3

In assay [7] the target is T3, MC3. Kind of assay: Test 3. cAMP stimulation, MC3. Format: cell-based. As to conditions: response relative to α-MSH. The method, then: as §3
The target in assay [8] is T2, MC5. Kind of assay: Test 3. cAMP stimulation, MC5. Particulars: response relative to α-MSH. It counts as cell-based. How it is done:
as §3

T1 sequence (P32245 whole entry): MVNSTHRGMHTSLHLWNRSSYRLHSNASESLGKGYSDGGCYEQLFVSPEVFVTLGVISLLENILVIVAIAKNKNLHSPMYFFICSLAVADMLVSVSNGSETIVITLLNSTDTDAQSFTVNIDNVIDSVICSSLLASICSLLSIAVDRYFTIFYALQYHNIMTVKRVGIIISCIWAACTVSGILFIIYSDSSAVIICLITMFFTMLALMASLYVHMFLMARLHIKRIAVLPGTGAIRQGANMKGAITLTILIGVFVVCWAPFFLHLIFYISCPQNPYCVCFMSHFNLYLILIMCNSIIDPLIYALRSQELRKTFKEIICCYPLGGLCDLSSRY
T3 sequence (P41968 whole entry): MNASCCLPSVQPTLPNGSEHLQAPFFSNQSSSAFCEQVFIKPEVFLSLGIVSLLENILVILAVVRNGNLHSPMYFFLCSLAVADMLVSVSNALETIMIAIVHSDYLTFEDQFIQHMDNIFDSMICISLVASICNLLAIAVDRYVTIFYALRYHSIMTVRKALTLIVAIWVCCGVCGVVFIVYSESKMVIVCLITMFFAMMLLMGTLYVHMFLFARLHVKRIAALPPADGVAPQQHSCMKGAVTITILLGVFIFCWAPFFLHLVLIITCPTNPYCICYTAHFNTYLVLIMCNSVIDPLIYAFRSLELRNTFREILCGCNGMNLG
T2 sequence (P33032 whole entry): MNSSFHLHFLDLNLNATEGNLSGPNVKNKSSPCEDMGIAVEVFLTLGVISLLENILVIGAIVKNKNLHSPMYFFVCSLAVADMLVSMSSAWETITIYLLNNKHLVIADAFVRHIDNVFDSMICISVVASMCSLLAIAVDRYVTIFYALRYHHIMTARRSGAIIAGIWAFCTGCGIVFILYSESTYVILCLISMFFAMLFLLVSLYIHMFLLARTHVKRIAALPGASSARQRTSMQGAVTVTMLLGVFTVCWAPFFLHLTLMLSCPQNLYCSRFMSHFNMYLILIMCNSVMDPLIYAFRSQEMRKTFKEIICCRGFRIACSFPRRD
MC1, sequence (Q01726 whole entry): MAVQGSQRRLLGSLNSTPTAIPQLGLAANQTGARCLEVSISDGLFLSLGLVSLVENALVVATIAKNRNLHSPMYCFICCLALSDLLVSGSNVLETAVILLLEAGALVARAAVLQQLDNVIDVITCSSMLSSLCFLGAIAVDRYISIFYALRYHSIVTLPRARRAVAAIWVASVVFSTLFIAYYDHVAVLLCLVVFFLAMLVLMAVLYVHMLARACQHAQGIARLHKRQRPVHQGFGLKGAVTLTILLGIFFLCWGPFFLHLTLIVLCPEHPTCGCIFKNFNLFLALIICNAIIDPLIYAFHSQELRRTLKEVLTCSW
MC1-receptor, sequence (Q01727 whole entry): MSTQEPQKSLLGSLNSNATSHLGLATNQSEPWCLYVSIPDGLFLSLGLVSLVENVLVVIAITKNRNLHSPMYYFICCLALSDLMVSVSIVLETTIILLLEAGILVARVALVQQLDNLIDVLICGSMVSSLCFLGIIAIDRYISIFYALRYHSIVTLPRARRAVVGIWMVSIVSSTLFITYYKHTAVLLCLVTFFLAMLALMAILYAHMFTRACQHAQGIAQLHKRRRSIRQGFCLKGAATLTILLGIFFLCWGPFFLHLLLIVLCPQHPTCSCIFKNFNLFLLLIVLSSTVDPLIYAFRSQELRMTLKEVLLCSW

On to `N=C(N)NN=Cc1cccn1-c1ccc(C(F)(F)F)cc1` [Compound 48, N-[(1-(4-Trifluoromethylphenyl)-1H-pyrrol-2-yl)methyleneamino]guanidine], for which the Ki in assay [1] worked out at 0.07 µM; in assay [2] it was 7.8 µM.

As for `N=C(N)NN=Cc1cccn1-c1cc(Cl)cc(Cl)c1` [Compound 50, N-[(1-(3,5-dichlorophenyl)-1H-pyrrol-2-yl)methyleneamino]guanidine], the inhibition constant (Ki) worked out at 12.8 µM in assay [3], 3.6 µM in assay [1] and 7.52 µM in assay [2]. The “Influence on cAMP: cAMP agonist/plateau stim. α-MSH (%) MC4” value in assay [4] amounted to 36%.

Regarding “N-{1-[(4-Chlorophenyl)-1H-Pyrrol-2-yl]methylene-amino}guanidine [Compound 1]”, the Ki in assay [5] worked out at 0.42 µM; in assay [3], 15.6 µM; in assay [1], 5.1 µM; in assay [2], 17.5 µM. Also, the “Influence on cAMP: cAMP agonist/plateau stim. α-MSH (%) MC1” value in assay [6] worked out at 30%. Besides, in assay [7], the “Influence on cAMP: cAMP agonist/plateau stim. α-MSH (%) MC3” value was 35%. Also, the “Influence on cAMP: cAMP agonist/plateau stim. α-MSH (%) MC4” value in assay [4] was found to be 118%. Moreover, in assay [8], the “Influence on cAMP: cAMP agonist/plateau stim. α-MSH (%) MC5” value was found to be 6%.

Values taken from US7442807B2, “N-phenylpyrrole guanidine derivatives as melanocortin receptor ligands” (Action Pharma A/S, priority 2001, dated 2008).
